Results as given in patent US20030027791A1, “Composition and method for reducing adverse interactions between phenothiazine derivatives and plasma using cyclodextrins” (Wyeth, priority 2001, published 2003).

Legend:
[1] = intravenous use; cited from earlier work
[2] = in vivo; cited from earlier work
[3] = Precipitate formation when promethazine hydrochloride preparation is mixed with plasma in vitro; type: physicochemical; details: mixing ratio not stated
From the text: Without being bound by any particular theory, it is believed that this precipitate formation could be related to the venous thrombosis found at the injection site, as well as the cause of other local adverse reactions involving promethazine hydrochloride injection. […] With a composition according to one or more of the embodiments set forth herein, it is expected that a promethazine hydrochloride solution given by the routes of i.v. and i.m. (intramuscular) injection would have fewer incidences of irritation and other adverse reactions at the site of injection.

## CC(CN1c2ccccc2Sc2ccccc21)N(C)C.Cl (racemic) [promethazine hydrochloride, 10H-Phenothiazine-10-ethanamine, N,N, α-trimethyl-, monohydrochloride, (±)-]
[1]
  Adverse reactions at the injection site: some incidents of venous thrombosis at the injection site have been encountered
[2]
  Plasma creatine kinase levels: raise plasma creatine kinase levels
[3]
  Precipitate formation when solution is mixed with plasma in vitro: precipitates form immediately
